The assay addresses T1, Full-length, GST-tagged, human CaMKIIδ (Homo sapiens, UniProt Q13557).
T1 construct: Full-Length, Glutathione-S-Transferase(GST)-Tagged, Human CaMKIIδ was purchased from Carna Biosciences; purchased Carna Biosciences 02-111
The assay can be described thus: CaMKIIδ binding assay (TR-FRET with BODIPY-labeled probe ligand). The protocol:
In vitro CaMKIIδ inhibitory activity was evaluated by a binding assay.
Full-Length, Glutathione-S-Transferase(GST)-Tagged, Human CaMKIIδ was purchased from Carna Biosciences (product #02-111, Kobe, Japan). Full-length bovine calmodulin was purchased from Wako Pure Chemical Industries (Osaka, Japan). Terbium-labeled anti-GST antibody (Tb-anti-GST Ab) was purchased from Life Technologies (Carlsbad, Calif., USA). Boron-dipyrromethene (BODIPY)-labeled probe ligand was synthesized as described below.
Time-Resolved Fluorescence Resonance Energy Transfer (TR-FRET) Assay
All assays were conducted using 384-well, white, flat-bottomed plates (product #784075, Greiner Bio-One, Frickenhausen, Germany) in kinase assay buffer, which consists of 50 mM HEPES pH 7.6, 10 mM MgCl2, 1 mM EGTA, 0.01% Brig-35, 0.1 mM DTT). The fluorescent probe ligand was added at a final concentration of 300 nM to solutions containing 0.21 nM Tb-anti-GST Ab, 1 mM CaCl2), 10 μg/mL calmodulin, and 0.5 nM GST-tagged CaMKIIδ. After shaded incubation of the protein-probe mixture on ice for 30 min, the premix was dispensed in the assay plate including test inhibitors with 4 fold dilution series of eight concentrations. After 1 hr incubation at room temperature, TR-FRET signals were measured in duplicate using an EnVision microplate reader (Perkin Elmer, Waltham, Mass., USA). The solution in each well was excited with a laser (λ=340 nm) reflected by a dichroic mirror (D400/D505 (Perkin Elmer) through an excitation filter (UV (TRF) 340, (Perkin Elmer)), and fluorescence from Tb and BODIPY were detected through two emission filters (CFP 495 (Perkin Elmer) for Tb, Emission 520 (Perkin Elmer) for BODIPY).
The percentage of inhibition of test compounds was calculated according to equation (1) Inhibition (%)=100×([…]−T)/(μH−μL) (1)
Where T is the value of the wells containing test compounds and μH and μL are the mean values of the 0% and 100% inhibition control wells, respectively. The values of the 0 and 100% controls were the signals obtained in the absence and presence of 3 μM its parent compound, respectively. The half maximal inhibitory concentration (IC50) of test compounds was calculated by fitting the data with the logistic equation using XLfit (IDBS, Guildford, UK). The IC50 was classified according to the following activity ranks.

Where [1] appears, read: CaMKIIδ binding assay, activity class per Table 2.
[2] abbreviates: Table 2, activity class for CaMKIIδ.
Setting [3] is: CaMKIIδ binding assay, results of Table 2.
Where [4] appears, read: Table 2, CaMKIIδ binding assay, activity given as class A/B/C.

In US10543212B2, “Substituted amines for treating cardiac diseases” (Cardurion Pharmaceuticals, LLC, priority 2017, dated 2020) one finds IC50 data, which are given here for 18 molecules.

As usually defined, the IC50 is the point on the concentration scale where inhibition reaches its midpoint. Lower therefore signals inhibition by little substance.

T1 sequence (Q13557 1-478 isoform Q13557-12): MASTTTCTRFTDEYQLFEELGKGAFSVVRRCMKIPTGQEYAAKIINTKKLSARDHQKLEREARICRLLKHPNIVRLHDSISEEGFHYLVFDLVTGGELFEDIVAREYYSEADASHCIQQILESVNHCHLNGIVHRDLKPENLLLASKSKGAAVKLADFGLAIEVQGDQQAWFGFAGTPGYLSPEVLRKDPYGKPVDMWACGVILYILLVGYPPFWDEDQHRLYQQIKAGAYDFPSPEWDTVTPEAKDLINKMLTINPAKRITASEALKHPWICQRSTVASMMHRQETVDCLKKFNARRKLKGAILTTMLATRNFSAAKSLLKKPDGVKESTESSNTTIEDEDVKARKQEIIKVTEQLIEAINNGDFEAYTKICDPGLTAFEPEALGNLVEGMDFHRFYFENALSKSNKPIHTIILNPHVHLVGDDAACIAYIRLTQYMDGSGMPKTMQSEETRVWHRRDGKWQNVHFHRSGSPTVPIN

Turning to `C[C@@H](Cn1cnnn1)Oc1cc(-c2cnc(Nc3cn(Cc4cccc(=O)[nH]4)nc3OCC(F)(F)F)nc2)ccc1Cl` [Example 929, (S)-6-((4-((5-(3-((1-(1H-tetrazol-1-yl)propan-2-yl)oxy)-4-chlorophenyl)pyrimidin-2-yl)amino)-3-(2,2,2-trifluoroethoxy)-1H-pyrazol-1-yl)methyl)pyridin-2(1H)-one], the IC50 under setting [1] is < 10 nM.

For `CCn1cc(Nc2ncc(-c3ccc(Cl)c(O[C@@H](C)Cn4cnnn4)c3)cn2)c(N2CCOCC2)n1` [Example 624, (S)-5-(3-((1-(1H-tetrazol-1-yl)propan-2-yl)oxy)-4-chlorophenyl)-N-(1-ethyl-3-morpholino-1H-pyrazol-4-yl)pyrimidin-2-amine], the IC50 under setting [2] was ≥ 100 nM.

With `C[C@@H](Cn1cnnn1)Oc1cc(-c2cnc(Nc3cn(C4CCN(C5CCN(C)CC5)CC4)nc3C(F)(F)F)nc2)ccc1Cl` [Example 559, (S)-5-(3-((1-(1H-tetrazol-1-yl)propan-2-yl)oxy)-4-chlorophenyl)-N-(1-(1'-methyl-[1,4'-bipiperidin]-4-yl)-3-(trifluoromethyl)-1H-pyrazol-4-yl)pyrimidin-2-amine], under setting [3], the concentration for half-maximal inhibition (IC50) is < 10 nM.

Regarding `COc1cc2c(cc1Nc1ncc(-c3ccc(Cl)c(O[C@@H](C)Cn4cnnn4)c3)cn1)CN(C(=O)C(C)(C)OC(C)=O)CC2` [Example 520, (S)-1-(7-((5-(3-((1-(1H-tetrazol-1-yl)propan-2-yl)oxy)-4-chlorophenyl)pyrimidin-2-yl)amino)-6-methoxy-3,4-dihydroisoquinolin-2(1H)-yl)-2-methyl-1-oxopropan-2-yl acetate], the IC50 under setting [3] is ≥ 100 nM.

Under setting [2], `COc1nc(N2CCN(C3CCC(F)(F)CC3)CC2)ccc1Nc1ncc(-c2ccc(Cl)c(O[C@@H](C)Cn3cnnn3)c2)cn1` [Example 636, (S)-5-(3-((1-(1H-tetrazol-1-yl)propan-2-yl)oxy)-4-chlorophenyl)-N-(6-(4-(4,4-difluorocyclohexyl)piperazin-1-yl)-2-methoxypyridin-3-yl)pyrimidin-2-amine] had an IC50 of 10 to 100 nM.

Turning to `C[C@@H](Cn1cnnn1)Oc1cc(-c2cnc(Nc3cn(CC4(O)CCOCC4)nc3OCC(F)(F)F)nc2)ccc1Cl` [Example 886, (S)-4-((4-((5-(3-((1-(1H-tetrazol-1-yl)propan-2-yl)oxy)-4-chlorophenyl)pyrimidin-2-yl)amino)-3-(2,2,2-trifluoroethoxy)-1H-pyrazol-1-yl)methyl)tetrahydro-2H-pyran-4-ol], the IC50 under setting [1] was < 10 nM.

Take `COC(=O)c1ccc(OC)c(Nc2ncc(-c3ccc(Cl)c(O[C@@H](C)Cn4cnnn4)c3)cn2)c1` [Example 526, methyl (S)-3-((5-(3-((1-(1H-tetrazol-1-yl)propan-2-yl)oxy)-4-chlorophenyl)pyrimidin-2-yl)amino)-4-methoxybenzoate]: the IC50 under setting [3] was in the range of 10 to 100 nM.

Consider `C[C@@H](Cn1cnnn1)Oc1cc(-c2cnc(Nc3cn(CC(C)(C)N)nc3C(F)(F)F)nc2)ccc1Cl` [Example 861, (S)-5-(3-((1-(1H-tetrazol-1-yl)propan-2-yl)oxy)-4-chlorophenyl)-N-(1-(2-amino-2-methylpropyl)-3-(trifluoromethyl)-1H-pyrazol-4-yl)pyrimidin-2-amine], for which, under setting [4], the IC50 is < 10 nM.

Consider `COc1cc(C)c(C(=O)N2CCOCC2)cc1Nc1ncc(-c2ccc(Cl)c(O[C@@H](C)Cn3cnnn3)c2)cn1` [Example 439, (S)-(5-((5-(3-((1-(1H-tetrazol-1-yl)propan-2-yl)oxy)-4-chlorophenyl)pyrimidin-2-yl)amino)-4-methoxy-2-methylphenyl)(morpholino)methanone], for which the IC50 under setting [3] is < 10 nM.

`COc1cc(N2C[C@@H]3C[C@H]2CN3C2CCOCC2)ccc1Nc1ncc(-c2ccc(Cl)c(O[C@@H](C)Cn3cnnn3)c2)cn1` [Example 653, 5-(3-(((S)-1-(1H-tetrazol-1-yl)propan-2-yl)oxy)-4-chlorophenyl)-N-(2-methoxy-4-((1S,4S)-5-(tetrahydro-2H-pyran-4-yl)-2,5-diazabicyclo[2.2.1]heptan-2-yl)phenyl)pyrimidin-2-amine] returned an IC50 under setting [2] of 10 to 100 nM.

Under setting [3], `C[C@@H](Cn1cnnn1)Oc1cc(-c2cnc(Nc3cn(C4CCN(Cc5ccncc5)CC4)nc3C(F)(F)F)nc2)ccc1Cl` [Example 550, (S)-5-(3-((1-(1H-tetrazol-1-yl)propan-2-yl)oxy)-4-chlorophenyl)-N-(1-(1-(pyridin-4-ylmethyl)piperidin-4-yl)-3-(trifluoromethyl)-1H-pyrazol-4-yl)pyrimidin-2-amine] returned an IC50 of 10 to 100 nM.

In the case of `COc1cc2c(cc1Nc1ncc(-c3ccc(Cl)c(O[C@@H](C)Cn4cnnn4)c3)cn1)CCN(C1COC1)C2` [Example 468, (S)-N-(5-(3-((1-(1H-tetrazol-1-yl)propan-2-yl)oxy)-4-chlorophenyl)pyrimidin-2-yl)-7-methoxy-2-(oxetan-3-yl)-1,2,3,4-tetrahydroisoquinolin-6-amine], the IC50 under setting [3] is < 10 nM.

On to `CCC(C)n1cc(Nc2ncc(-c3ccc(Cl)c(O[C@@H](C)Cn4cnnn4)c3)cn2)c(C(F)(F)F)n1` (stereo partly drawn) [Example 608, 5-(3-(((S)-1-(1H-tetrazol-1-yl)propan-2-yl)oxy)-4-chlorophenyl)-N-(1-(sec-butyl)-3-(trifluoromethyl)-1H-pyrazol-4-yl)pyrimidin-2-amine], for which the IC50 under setting [2] was 10 to 100 nM.

For the molecule `COc1cc2c(cc1Nc1ncc(-c3ccc(Cl)c(O[C@@H](C)Cn4cnnn4)c3)cn1)CCN(C(=O)CN1CCOCC1)C2` [Example 470, (S)-1-(6-((5-(3-((1-(1H-tetrazol-1-yl)propan-2-yl)oxy)-4-chlorophenyl)pyrimidin-2-yl)amino)-7-methoxy-3,4-dihydroisoquinolin-2(1H)-yl)-2-morpholinoethan-1-one], the IC50 under setting [3] is < 10 nM.

`C[C@@H](Cn1cnnn1)Oc1cc(-c2cnc(Nc3cn(C4CCN(C5CCOCC5)CC4)nc3C#N)nc2)ccc1Cl` [Example 592, (S)-4-((5-(3-((1-(1H-tetrazol-1-yl)propan-2-yl)oxy)-4-chlorophenyl)pyrimidin-2-yl)amino)-1-(1-(tetrahydro-2H-pyran-4-yl)piperidin-4-yl)-1H-pyrazole-3-carbonitrile]: the IC50 under setting [2] was < 10 nM.

For `C[C@@H](Cn1cnnn1)Oc1cc(-c2cnc(Nc3cn([C@H]4CC[C@H](N5CCC5)CC4)nc3C(F)(F)F)nc2)ccc1Cl` [Example 779, 5-(3-(((S)-1-(1H-tetrazol-1-yl)propan-2-yl)oxy)-4-chlorophenyl)-N-(1-(trans-4-(azetidin-1-yl)cyclohexyl)-3-(trifluoromethyl)-1H-pyrazol-4-yl)pyrimidin-2-amine], the IC50 under setting [4] is < 10 nM.

Under setting [2], `C[C@@H](Cn1cnnn1)Oc1cc(-c2cnc(Nc3cn(C4CCOCC4)nc3C(F)(F)F)nc2)ccc1Cl` [Example 645, (S)-5-(3-((1-(1H-tetrazol-1-yl)propan-2-yl)oxy)-4-chlorophenyl)-N-(1-(tetrahydro-2H-pyran-4-yl)-3-(trifluoromethyl)-1H-pyrazol-4-yl)pyrimidin-2-amine] showed a half-maximal inhibitory concentration (IC50) of 10 to 100 nM.

For the molecule `COc1nc(N2CCCNCC2)ccc1Nc1ncc(-c2ccc(Cl)c(O[C@@H](C)Cn3cnnn3)c2)cn1` [Example 666, (S)-N-(6-(1,4-diazepan-1-yl)-2-methoxypyridin-3-yl)-5-(3-((1-(1H-tetrazol-1-yl)propan-2-yl)oxy)-4-chlorophenyl)pyrimidin-2-amine], the IC50 under setting [2] is < 10 nM.
